Laboratory results taken from patent US20260053778A1, “USE OF NOVEL PPAR ACTIVITY MODULATOR FOR PREVENTION, AMELIORATION OR TREATMENT OF DEGENERATIVE BRAIN DISEASES” (POSTECH RESEARCH AND BUSINESS DEVELOPMENT FOUNDATION, priority 2022, published 2026).

Columns and labels:
RAW 264.7 macrophages = test: NO production inhibition (Griess assay) in LPS-treated macrophages; type: cell-based; conditions: LPS-induced
Method: Previous studies have reported that all three subtypes of PPAR inhibit inflammatory responses through inhibition of the activity and quantitative changes of the NF-κB transcription factor, a major regulator of inflammatory responses.
First, RAW 264.7 macrophages were cultured in a humidified atmosphere of 37° C. in a 5% CO2 incubator with DMEM containing 10% FBS and 1% penicillin/streptomycin. After inducing an inflammatory response in RAW 264.7 macrophages by LPS treatment, the Griess assay (Promega) was performed according to the manufacturer's instructions to measure the concentration of nitrite.

5×FAD mice [1] = test: Western blot of NLRP3, NF-κB and ASC in hippocampal tissue; type: in vivo, mouse; conditions: hippocampal brain lysate
Method: The protein levels of NLRP3, NF-κB, and ASC in the hippocampal tissues isolated from 5×FAD mice and DTMB-treated 5×FAD mice were confirmed by Western blot. Western blot analysis was performed in the same manner as in Example 2-4 using primary antibodies against NLRP3, NF-κB, and ASC (Cell Signaling Technology, Danvers, MA, USA).

[2] = Body weight and organ weight after 12 weeks of treatment; type: in vivo, mouse; conditions: DTMB 10 mg/kg orally, 12 weeks (3 months), versus vehicle-treated mice
Method: 5×FAD (Tg6799) mice were purchased from Jackson Laboratory (Bar Harbor, ME, USA), and male transgenic mice were mated with B6/SJL hybrid female mice. Genotyping was performed by PCR analysis of tail-cut samples. In this example, 8-week-old female mice were used for drug administration, and wild-type littermates were used as controls. All procedures related to animal behavior experiments were approved by the Institutional Animal Care and Use Committee of Pohang University of Science and Technology (POSTECH IACUC). All animal experiments were performed in accordance with the principles of the Animal Welfare Act, the PHS Animal Welfare Policy, and the NIH Guide for the Care and Use of Laboratory Animals. All mice were maintained under general conditions in the POSTECH animal facility according to institutional guidelines.
To evaluate the effect of DTMB on 5×FAD mice, DTMB (10 mg/kg) and vehicle (1% carboxymethylcellulose and 10% DMSO) were orally administered to four groups (wild type, wild type+DTMB, 5×FAD, and 5×FAD+DTMB) 6 days per week for 3 months.

5×FAD mice [3] = test: Western blot and qPCR of APP and β-/γ-secretase in brain tissue; type: in vivo, mouse; conditions: DTMB 10 mg/kg orally
Method: Aβ peptides are generated from amyloid precursor protein (APP) by the action of β- and γ-secretase. It is possible that DTMB acts on APP processing to inhibit the formation of Aβ aggregates. To investigate this possibility, the protein levels of total APP and components of β- and γ-secretase were measured in the hippocampus and cortex using western blot and qPCR.
To investigate the soluble and insoluble Aβ components, two extraction steps were performed. Left hemisphere samples were homogenized at a concentration of 100 mg/mL in cold Tris-buffered saline (TBS consisting of 50 mM Tris-pH 7.5 and 150 mM NaCl) with a protease inhibitor cocktail (Thermo Fisher Scientific, Waltham, MO, USA). After centrifugation at 15,000 rpm for 1 hour at 4° C., the supernatant of the sample was used for western blotting. Insoluble proteins were extracted from the pellet by dissolving in 5 M guanidine buffer (5 M guanidine HCl and 150 mM NaCl-pH 7.5). Soluble and insoluble protein samples were stored at −80° C.
Western blot analysis was performed in the same manner as in Example 2-4 using primary antibodies against nicastrin, pen2 (Cell Signaling Technology, Danvers, MA, USA), Aph1 (Invitrogen), amyloid C-terminal fragment (Santa Cruz Biotechnology, Dallas, TX, USA), and GAPDH (Bethyl Laboratories, Mongomery, TX, USA). Secondary antibodies from rabbit (Promega), rat, and goat (Bethyl Laboratories) were used, and detection was performed using SUPEX ECL reagent (Neuronex, Korea) and ImageQuant LAS-4000 (GE Healthcare, MA, USA) according to the manufacturer's instructions. Integrated blot densities were quantified using ImageJ.

[4] = test system: 5×FAD Alzheimer's dementia-induced mice; test: Immunohistochemistry of Aβ aggregates in brain tissue; type: in vivo, mouse; conditions: hippocampus and cerebral cortex regions, 6e10 immunohistochemistry, 5×FAD mice, DTMB 10 mg/kg orally
Method: In the case of Alzheimer's dementia, an increase in the formation of Aβ aggregates in brain tissue is observed as a common pathological phenomenon. Therefore, to determine whether DTMB administration inhibited the formation of Aβ aggregates, the amount of AB aggregates in the hippocampus and cerebral cortex, which are closely related to memory ability, was measured using immunochemical staining in 5×FAD Alzheimer's dementia-induced mice.
The mice were perfused with ice-cold phosphate-buffered saline (PBS). The brain tissue was used separately for molecular analysis or immunohistochemistry. The right hemisphere was fixed with 4% PFA and transferred to a sucrose solution (30%) for 24 hours. The right hemisphere was frozen in the optimal cutting temperature compound of dry ice. Coronal sections (18 μm thick) including the hippocampus were cut and prepared on slide glass. The tissue sections were then permeabilized and blocked with blocking solution (5% goat serum and 0.2% Triton X-100 in PBS) for 1 h at room temperature. Primary antibody incubation was performed overnight at 4° C. using anti-6e10 antibody (Biolegend, Japan, 1:100). After washing, the sections were incubated with the appropriate secondary antibody (1:500) for 1 h at room temperature. […] Fluorescence was measured by calculating the % area and analyzed using ImageJ. […]

In the case of COc1ccc(-c2cc(=O)oc3c(C)c(OC(=O)[C@H](Cc4c[nH]c5ccccc45)NC(=O)OC(C)(C)C)ccc23)cc1 [DTMB, [4-(4-Methoxyphenyl)-8-methyl-2-oxochromen-7-yl](2S)-3-(1H-indol-3-yl)-2-[(2-methylpropan-2-yl)oxycarbonylamino]propanoate], the “NO production inhibition compared with PPAR modulators” value (RAW 264.7 macrophages; at the same concentration) is reported as “more effectively than WY14643, a PPARα modulator, and rosiglitazone, a PPARγ modulator”, the IC50 (RAW 264.7 macrophages; Mus musculus, RAW264.7, Griess reagent) is reported as 1230 nM and the ASC level (5×FAD mice [1]) is reported as “did not change significantly”. For the same compound, the “Protein level of NF-κB” value (5×FAD mice [1]) was “decreased”, the “Protein level of NLRP3” value (5×FAD mice [1]) was “decreased” and the Body weight [2] was “no change”. The Tissue weight [2] was “no change”, the “Protein level of β-secretase” value (5×FAD mice [3]; cortex) was “slightly decreased” and the “APP protein and mRNA levels” value (5×FAD mice [3]; hippocampus) was “no changes”. For the same compound, the “Protein levels of β- and γ-secretase” value (5×FAD mice [3]; hippocampus) was “no changes” and the “Amount of Aβ aggregates” value [4] was “significantly reduced”.
